Three compounds from BindingDB's records for doi:10.1021/jm00028a001 (University of Pennsylvania, 1994) can be followed below.

The target of the experiment is T1, Dimer of Gag-Pol polyprotein [489-587] (Human immunodeficiency virus 1, UniProt P12497).
T1 construct: 489-587
Briefly: Protease Inhibition Assay. The note with it: pH 5.5; 30 °C. As to the method:
Sensitivity of HIV-1 protease activity to protease inhibitors was determined by a peptide substrate cleavage assay. Protease products were analyzed on a reverse-phase high-pressure liquid chromatograph.
As a reminder, the IC50 is the concentration at which inhibition is half-maximal. `CCC(C)[C@@H]1NC(=O)[C@@H](NC[C@@H](O)[C@H](Cc2ccc(O)cc2)NC(=O)[C@H](C(C)C)N2CCCC2=O)Cc2ccc(cc2)OCCCNC1=O` (stereo partly drawn) [(2S)-N-[(2S,3R)-4-{[(8S,11S)-8-[(2R)-butan-2-yl]-7,10-dioxo-2-oxa-6,9-diazabicyclo[11.2.2]heptadeca-1(15),13,16-trien-11-yl]amino}-3-hydroxy-1-(4-hydroxyphenyl)butan-2-yl]-3-methyl-2-(2-oxopyrrolidin-1-yl)butanamide] displayed an IC50 of 10 nM.

The compound `CC(C)C[C@@]1(C2C=N[C@@](Cc3ccccc3)(C[C@H](O)[C@H](Cc3ccccc3)NC(=O)O[C@@H]3CCOC3)C2=O)N=CC([C@@H](Cc2ccccc2)C(N)=O)C1=O` (stereo partly drawn) [(3R)-oxolan-3-yl N-[(2S,3S)-4-[(2S)-2-benzyl-4-[(2S)-4-[(1R)-1-carbamoyl-2-phenylethyl]-2-(2-methylpropyl)-3-oxo-2,3-dihydro-1H-pyrrol-2-yl]-3-oxo-2,3-dihydro-1H-pyrrol-2-yl]-3-hydroxy-1-phenylbutan-2-yl]carbamate] registered an IC50 of 1.3 nM.

The compound `CC(C)(C)NC(=O)[C@@H]1CCCCN1C[C@@H](O)[C@@H]1Cc2ccc(cc2)OCCCC(=O)N[C@@H](CC(N)=O)C(=O)N1` [Peptidomimetic inhibitor 4] had an IC50 of 0.6 nM. Compared with the last compound, the IC50 is about 2.2-fold lower.
